Data from PubChem BioAssay AID1845206 (Molecular Pharmacology Branch, DTP, NCI, 2023).

Test system: NCI-H1618 multicellular tumor spheroid viability
Experiment: Anticancer human tumor NCI-H1618 cell line growth inhibition;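 further: spheroids exposed to agents for 7 days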
Details: for IC50: curve of first compound; for viability, T/C: stronger effect = lower value
Summary of the method: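 Single agents and combinations were tested on spheroids built from tumor cells plus HUVEC and hMSC, at half-log dilutions starting at or near clinical Cmax, else 10 microM; final DMSO 0.25% (v/v).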

[1] = second compound 30 pM, first compound 0.0316 µM
[2] = second compound 30 pM, first compound 0.1 µM
[3] = second compound 30 pM, first compound 0.316 µM
[4] = second compound 30 pM, first compound 1 µM
[5] = second compound 30 pM, first compound 3.16 µM
[6] = second compound 30 pM, first compound 10 µM
[7] = second compound 94.9 pM, first compound 0.0316 µM
[8] = second compound 94.9 pM, first compound 0.1 µM
[9] = second compound 94.9 pM, first compound 0.316 µM
[10] = second compound 94.9 pM, first compound 1 µM
[11] = second compound 94.9 pM, first compound 3.16 µM
[12] = second compound 94.9 pM, first compound 10 µM
[13] = second compound 0.0003 µM, first compound 0.0316 µM
[14] = second compound 0.0003 µM, first compound 0.1 µM
[15] = second compound 0.0003 µM, first compound 0.316 µM
[16] = second compound 0.0003 µM, first compound 1 µM
[17] = second compound 0.0003 µM, first compound 3.16 µM
[18] = second compound 0.0003 µM, first compound 10 µM
[19] = second compound 0.000949 µM, first compound 0.0316 µM
[20] = second compound 0.000949 µM, first compound 0.1 µM
[21] = second compound 0.000949 µM, first compound 0.316 µM
[22] = second compound 0.000949 µM, first compound 1 µM
[23] = second compound 0.000949 µM, first compound 3.16 µM
[24] = second compound 0.000949 µM, first compound 10 µM
[25] = second compound 0.003 µM, first compound 0.0316 µM
[26] = second compound 0.003 µM, first compound 0.1 µM
[27] = second compound 0.003 µM, first compound 0.316 µM
[28] = second compound 0.003 µM, first compound 1 µM
[29] = second compound 0.003 µM, first compound 3.16 µM
[30] = second compound 0.003 µM, first compound 10 µM

`CC1COCCN1c1cc(-c2ccnn2C)c2ccnc(-c3ccn[nH]3)c2n1` (stereo not given) + COc1cc2c(cc1O)CCNC21CSC2c3c(OC(C)=O)c(C)c4c(c3C(COC1=O)N1C(O)C3Cc5cc(C)c(OC)c(O)c5C(C21)N3C)OCO4 gave an IC50 (second compound 30 pM) of under 31.6 nM, an IC50 (second compound 94.9 pM) of under 31.6 nM and an IC50 (second compound 0.0003 µM) of under 31.6 nM. It also gave an IC50 (second compound 0.000949 µM) of under 31.6 nM, an IC50 (second compound 0.003 µM) of under 31.6 nM and a viability, T/C [1] of 41%. The viability, T/C [2] was 8.59%, the viability, T/C [3] was 2.6% and the viability, T/C [4] was 1.69%. For the same molecule, the viability, T/C [5] was 1.44%, the viability, T/C [6] was 1.07% and the viability, T/C [7] was 4.76%. For the same molecule, the viability, T/C [8] was 7.64%, the viability, T/C [9] was 1.66% and the viability, T/C [10] was 2.1%. The viability, T/C [11] was 0.97%, the viability, T/C [12] was 1.13% and the viability, T/C [13] was 7.32%. It also gave a viability, T/C [14] of 1.52%, a viability, T/C [15] of 2.44% and a viability, T/C [16] of 1.22%. For the same molecule, the viability, T/C [17] was 1.2%, the viability, T/C [18] was 1.07% and the viability, T/C [19] was 1.86%. The viability, T/C [20] was 2.16%, the viability, T/C [21] was 1.58% and the viability, T/C [22] was 1.26%. The viability, T/C [23] was 1.11%, the viability, T/C [24] was 1.22% and the viability, T/C [25] was 1.5%. The viability, T/C [26] was 1.77%, the viability, T/C [27] was 2.41% and the viability, T/C [28] was 2.07%. It also gave a viability, T/C [29] of 1.2% and a viability, T/C [30] of 1.35%.
For `COc1cc(C)[nH]c(=O)c1CN1CCc2c(Cl)cc(C(OC)C3COC3)c(Cl)c2C1=O` (stereo not given) + COc1cc2c(cc1O)CCNC21CSC2c3c(OC(C)=O)c(C)c4c(c3C(COC1=O)N1C(O)C3Cc5cc(C)c(OC)c(O)c5C(C21)N3C)OCO4, the IC50 (second compound 30 pM) was over 10000 nM, the IC50 (second compound 94.9 pM) was 527 nM and the IC50 (second compound 0.0003 µM) was under 31.6 nM. The IC50 (second compound 0.000949 µM) was under 31.6 nM, the IC50 (second compound 0.003 µM) was under 31.6 nM and the viability, T/C [1] was 73.8%. For the same molecule, the viability, T/C [2] was 74.9%, the viability, T/C [3] was 61.7% and the viability, T/C [4] was 73.8%. It also gave a viability, T/C [5] of 74.4%, a viability, T/C [6] of 67.9% and a viability, T/C [7] of 86.8%. For the same molecule, the viability, T/C [8] was 65.9%, the viability, T/C [9] was 48.3% and the viability, T/C [10] was 57.5%. It also gave a viability, T/C [11] of 31.9%, a viability, T/C [12] of 38.4% and a viability, T/C [13] of 14.9%. The viability, T/C [14] was 19.3%, the viability, T/C [15] was 5.64% and the viability, T/C [16] was 2.68%. For the same molecule, the viability, T/C [17] was 1.81%, the viability, T/C [18] was 3.33% and the viability, T/C [19] was 5.55%. The viability, T/C [20] was 2.33%, the viability, T/C [21] was 3.62% and the viability, T/C [22] was 3.05%. The viability, T/C [23] was 3.08%, the viability, T/C [24] was 3.38% and the viability, T/C [25] was 3.07%. The viability, T/C [26] was 2.73%, the viability, T/C [27] was 3.33% and the viability, T/C [28] was 2.29%. It also gave a viability, T/C [29] of 1.94% and a viability, T/C [30] of 2.51%.
In the case of `Cc1cc(C)c(CNC(=O)c2cc(-c3ccc(CN4CCOCC4)cc3)cc3c2cnn3C2CCCC2)c(=O)[nH]1` + COc1cc2c(cc1O)CCNC21CSC2c3c(OC(C)=O)c(C)c4c(c3C(COC1=O)N1C(O)C3Cc5cc(C)c(OC)c(O)c5C(C21)N3C)OCO4, the IC50 (second compound 30 pM) is reported as over 10000 nM, the IC50 (second compound 94.9 pM) is reported as 1770 nM and the IC50 (second compound 0.0003 µM) is reported as under 31.6 nM. For the same molecule, the IC50 (second compound 0.000949 µM) was under 31.6 nM, the IC50 (second compound 0.003 µM) was under 31.6 nM and the viability, T/C [1] was 92.5%. It also gave a viability, T/C [2] of 86.8%, a viability, T/C [3] of 89.7% and a viability, T/C [4] of 72.7%. For the same molecule, the viability, T/C [5] was 88%, the viability, T/C [6] was 58.6% and the viability, T/C [7] was 46.9%. The viability, T/C [8] was 66.5%, the viability, T/C [9] was 66.9% and the viability, T/C [10] was 55%. For the same molecule, the viability, T/C [11] was 45.7%, the viability, T/C [12] was 44.2% and the viability, T/C [13] was 2.47%. The viability, T/C [14] was 10.3%, the viability, T/C [15] was 4.67% and the viability, T/C [16] was 5.71%. For the same molecule, the viability, T/C [17] was 2.43%, the viability, T/C [18] was 2.6% and the viability, T/C [19] was 4.74%. For the same molecule, the viability, T/C [20] was 7.05%, the viability, T/C [21] was 2.83% and the viability, T/C [22] was 3.43%. The viability, T/C [23] was 3.12%, the viability, T/C [24] was 2.59% and the viability, T/C [25] was 2.14%. It also gave a viability, T/C [26] of 3%, a viability, T/C [27] of 3.25% and a viability, T/C [28] of 4.16%. It also gave a viability, T/C [29] of 3.95% and a viability, T/C [30] of 1.24%.
For `Cc1sc2c(c1C)C(c1ccc(Cl)cc1)=NC(CC(=O)Nc1ccc(O)cc1)c1nnc(C)n1-2` (stereo not given) + COc1cc2c(cc1O)CCNC21CSC2c3c(OC(C)=O)c(C)c4c(c3C(COC1=O)N1C(O)C3Cc5cc(C)c(OC)c(O)c5C(C21)N3C)OCO4, the IC50 (second compound 30 pM) was 275 nM, the IC50 (second compound 94.9 pM) was 157 nM and the IC50 (second compound 0.0003 µM) was under 9.49 nM. It also gave an IC50 (second compound 0.000949 µM) of under 9.49 nM, an IC50 (second compound 0.003 µM) of under 9.49 nM and a viability, T/C (second compound 30 pM, first compound 0.00949 µM) of 86.2%. For the same molecule, the viability, T/C (second compound 30 pM, first compound 0.03 µM) was 116%, the viability, T/C (second compound 30 pM, first compound 0.0949 µM) was 93.5% and the viability, T/C (second compound 30 pM, first compound 0.3 µM) was 45.9%. For the same molecule, the viability, T/C (second compound 30 pM, first compound 0.949 µM) was 11.1%, the viability, T/C (second compound 30 pM, first compound 3 µM) was 2.15% and the viability, T/C (second compound 94.9 pM, first compound 0.00949 µM) was 72.2%. It also gave a viability, T/C (second compound 94.9 pM, first compound 0.03 µM) of 84.4%, a viability, T/C (second compound 94.9 pM, first compound 0.0949 µM) of 63.9% and a viability, T/C (second compound 94.9 pM, first compound 0.3 µM) of 29.9%. It also gave a viability, T/C (second compound 94.9 pM, first compound 0.949 µM) of 3.78%, a viability, T/C (second compound 94.9 pM, first compound 3 µM) of 1.08% and a viability, T/C (second compound 0.0003 µM, first compound 0.00949 µM) of 22.7%. The viability, T/C (second compound 0.0003 µM, first compound 0.03 µM) was 2.53%, the viability, T/C (second compound 0.0003 µM, first compound 0.0949 µM) was 10.2% and the viability, T/C (second compound 0.0003 µM, first compound 0.3 µM) was 11.7%. It also gave a viability, T/C (second compound 0.0003 µM, first compound 0.949 µM) of 0.74%, a viability, T/C (second compound 0.0003 µM, first compound 3 µM) of 0.78% and a viability, T/C (second compound 0.000949 µM, first compound 0.00949 µM) of 4.7%. It also gave a viability, T/C (second compound 0.000949 µM, first compound 0.03 µM) of 2.6%, a viability, T/C (second compound 0.000949 µM, first compound 0.0949 µM) of 1.78% and a viability, T/C (second compound 0.000949 µM, first compound 0.3 µM) of 0.74%. It also gave a viability, T/C (second compound 0.000949 µM, first compound 0.949 µM) of 0.65%, a viability, T/C (second compound 0.000949 µM, first compound 3 µM) of 0.37% and a viability, T/C (second compound 0.003 µM, first compound 0.00949 µM) of 2.16%. It also gave a viability, T/C (second compound 0.003 µM, first compound 0.03 µM) of 2.42%, a viability, T/C (second compound 0.003 µM, first compound 0.0949 µM) of 0.82% and a viability, T/C (second compound 0.003 µM, first compound 0.3 µM) of 0.41%. The viability, T/C (second compound 0.003 µM, first compound 0.949 µM) was 0.26% and the viability, T/C (second compound 0.003 µM, first compound 3 µM) was 0.46%.
In the case of `[2H]c1nc(C)nc([2H])c1-c1cc(NC[C@@H](C)c2cccc3c(C(=O)NC)ccnc23)ncn1` + COc1cc2c(cc1O)CCNC21CSC2c3c(OC(C)=O)c(C)c4c(c3C(COC1=O)N1C(O)C3Cc5cc(C)c(OC)c(O)c5C(C21)N3C)OCO4, the IC50 (second compound 30 pM) is reported as over 10000 nM, the IC50 (second compound 94.9 pM) is reported as 249 nM and the IC50 (second compound 0.0003 µM) is reported as under 31.6 nM. The IC50 (second compound 0.000949 µM) was under 31.6 nM, the IC50 (second compound 0.003 µM) was under 31.6 nM and the viability, T/C [1] was 101%. For the same molecule, the viability, T/C [2] was 93.8%, the viability, T/C [3] was 87.8% and the viability, T/C [4] was 103%. It also gave a viability, T/C [5] of 93.9%, a viability, T/C [6] of 83.3% and a viability, T/C [7] of 90.6%. The viability, T/C [8] was 61.4%, the viability, T/C [9] was 24.4% and the viability, T/C [10] was 55.4%. It also gave a viability, T/C [11] of 52.7%, a viability, T/C [12] of 55.7% and a viability, T/C [13] of 5.13%. It also gave a viability, T/C [14] of 2.89%, a viability, T/C [15] of 3.41% and a viability, T/C [16] of 5.38%. It also gave a viability, T/C [17] of 18.8%, a viability, T/C [18] of 3.93% and a viability, T/C [19] of 3.46%. For the same molecule, the viability, T/C [20] was 3.49%, the viability, T/C [21] was 3.75% and the viability, T/C [22] was 4.59%. It also gave a viability, T/C [23] of 4.63%, a viability, T/C [24] of 4.69% and a viability, T/C [25] of 2.53%. For the same molecule, the viability, T/C [26] was 3.55%, the viability, T/C [27] was 4.4% and the viability, T/C [28] was 3.2%. It also gave a viability, T/C [29] of 1.87% and a viability, T/C [30] of 5.37%.
